Earlier results as cited in US12502373B2, “High-content abamectin emulsifiable concentrate” (Rotam Agrochem International Company Limited, priority 2021, dated 2025).

Legend:
[1] = system: rats
[2] = pH: 5-9 and 25° C.

Abamectin
oral LD50 [1]: 1470 mg/kg
hydrolysis of the aqueous solution [2]: will not be hydrolysed
